The results in this text go back to US20250085201A1, “SUBSTITUTED QUADRUPOLAR FLUORESCENT DYES FOR LIVE CELL IMAGING” (Northwestern University, priority 2023, published 2025).

What all share (format): physicochemical
Data set [1] can be described thus: Transient absorption (fsTA/nsTA) and time-resolved fluorescence spectroscopy. Conditions: in MeCN; for non-radiative decay rate constant kNR: kNR = kobs(1 − ΦF); for radiative decay rate constant kR: kR = kobsΦF. The source says: The excited-state properties of these quadrupolar dyes were investigated using transient absorption (TA) spectroscopy. The TA data of dyes 1-4 and 6 in MeCN with lex=350 nm (FIGS. 9-12 and 15) show similar spectra with the same general electronic evolution, though with differing kinetics. Following excitation, strong excited-state absorption features appear between ˜450-500 nm along with a strong single peak in the near-infrared region, both of which are associated with Sn←S1 absorptions. The visible bands redshift over the following ˜100 ps, while the near-infrared band peaks first blueshift in the initial ˜10 ps before settling. These near-infrared absorption bands are similar to those observed^59,60 in extended bipyridinium compounds. Following these shifts, the excited states decay via emission with lifetimes between 3-4 ns as confirmed by time-resolved fluorescence (TRF) spectroscopy. The spectral shape of the transient species is generally maintained throughout their lifetimes, implying that the dynamics in each dye all occur on a single electronic excited state (S1) prior to emission. The spectral shifts at early times may arise due to excited-state symmetry breaking^77-78 in the quadrupolar dyes, wherein fluctuations in the instantaneous electrostatic environment afforded by the solvent transiently favor wavefunction localization on one side of the symmetric molecule, creating an excited state with a large dipole moment that is associated with the Stokes shift observed^79 in the fluorescence spectra. This localization can lead to changes in the transient absorption spectra as a result of the breakdown^42,80 of the Laporte rule. The shifts at longer times may arise from solvent or structural relaxation of the dyes.
Steady-state and time-resolved emission spectra for dyes 1-6, 7·2PF6 and 9·4PF6 were acquired using a HORIBA Fluorolog-3 spectrofluorometer, equipped with a time-correlated single photon counting (TCSPC) module (diode laser excitation at λ=375 nm) and an integrating sphere, which was used for absolute photo-luminescence quantum yield determinations. Picosecond time-resolved fluorescence measurements were recorded using a commercial direct-diode-pumped 100 kHz amplifier (Spirit 1040-HE, Spectra-Physics), producing a fundamental beam of 1040 nm (350 fs, 12 W) which was used to pump a non-collinear optical parametric amplifier (Spirit-NOPA, SpectraPhysics) capable of delivering tunable, high-repetition-rate pulses with pulse widths as short as sub-20 fs. Dyes 1-6, 7·2PF6 and 9·4PF6 were excited with 350 nm, 2 nJ laser pulses. Fluorescence was detected using a Hamamatsu C4780 Streakscope as previously described in the literature. Samples were prepared in 2-mm quartz cuvettes. All data were acquired in the single-photon-counting mode using the Hamamatsu HPD-TA software. The temporal resolution was approximately 2% of the sweep window. Single wavelength kinetic analysis was performed using a nonlinear least-squares fit to a sum of exponentials convoluted with an instrument response function. Visible and near-infrared femtosecond and nanosecond transient absorption (fsTA and nsTA, respectively) spectroscopies were performed following descriptions already recorded in the literature. The 330 nm, ˜100 fs pump pulses were generated at 1 μJ per pulse using a commercial collinear optical parametric amplifier (TOPAS-Prime, Light-Conversion, Ltd.); 414-nm pump pulses were obtained by second-harmonic generation of the 828 nm fundamental. The pump polarization was randomized using a commercial depolarizer (DPU-25-A, Thorlabs, Inc.) to eliminate any orientational dynamics resulting from the experiment. Spectra were collected on commercial spectrometers (customized Ultrafast Systems Helios and EOS spectrometers, for fsTA and nsTA, respectively) for each time window. All samples were stirred to avoid localized heating or degradation effects. The optical density was maintained at 0.6 for all samples. […]

Data set [2] can be described thus: Absolute fluorescence quantum yield (integrating sphere). The following applies: in MeCN. As for the experimental part: (§1) Fluorescent dyes were dissolved in the appropriate solvents to afford 1 mM solutions prior to spectroscopic analysis. A portion of 30 μL of a 1 mM solution was diluted by adding a selected solvent to a sample with a total volume of 3000 μL, affording a 1×10^−5 M solution. UV/Vis Absorption spectra were recorded in glass cuvettes on a UV-3600 Shimadzu spectrophotometer. Steady-state emission spectra were acquired in quartz cuvettes with optical path-lengths of 10 mm containing the solution being analyzed using a HORIBA Fluoromax4 spectrofluorometer, which was equipped with an integrating sphere for determining the absolute photoluminescence quantum yield.
Steady-state and time-resolved emission spectra for dyes 1-6, 7·2PF6 and 9·4PF6 were acquired using a HORIBA Fluorolog-3 spectrofluorometer, equipped with a time-correlated single photon counting (TCSPC) module (diode laser excitation at λ=375 nm) and an integrating sphere, which was used for absolute photo-luminescence quantum yield determinations. Picosecond time-resolved fluorescence measurements were recorded using a commercial direct-diode-pumped 100 kHz amplifier (Spirit 1040-HE, Spectra-Physics), producing a fundamental beam of 1040 nm (350 fs, 12 W) which was used to pump a non-collinear optical parametric amplifier (Spirit-NOPA, SpectraPhysics) capable of delivering tunable, high-repetition-rate pulses with pulse widths as short as sub-20 fs. Dyes 1-6, 7·2PF6 and 9·4PF6 were excited with 350 nm, 2 nJ laser pulses. Fluorescence was detected using a Hamamatsu C4780 Streakscope as previously described in the literature. Samples were prepared in 2-mm quartz cuvettes. All data were acquired in the single-photon-counting mode using the Hamamatsu HPD-TA software. The temporal resolution was approximately 2% of the sweep window. Single wavelength kinetic analysis was performed using a nonlinear least-squares fit to a sum of exponentials convoluted with an instrument response function. Visible and near-infrared femtosecond and nanosecond transient absorption (fsTA and nsTA, respectively) spectroscopies were performed following descriptions already recorded in the literature. The 330 nm, ˜100 fs pump pulses were generated at 1 μJ per pulse using a commercial collinear optical parametric amplifier (TOPAS-Prime, Light-Conversion, Ltd.); 414-nm pump pulses were obtained by second-harmonic generation of the 828 nm fundamental. The pump polarization was randomized using a commercial depolarizer (DPU-25-A, Thorlabs, Inc.) to eliminate any orientational dynamics resulting from the experiment. Spectra were collected on commercial spectrometers (customized Ultrafast Systems Helios and EOS spectrometers, for fsTA and nsTA, respectively) for each time window. All samples were stirred to avoid localized heating or degradation effects. The optical density was maintained at 0.6 for all samples.
Steady-state and time-resolved emission spectra for dyes 7·2PF6 and 9·4PF6 were acquired using a HORIBA Fluorolog-3 spectrofluorometer, equipped with a time-correlated single photon counting (TCSPC) module (diode laser excitation at =375 nm) and an integrating sphere, which was used for absolute photo-luminescence quantum yield determinations. Picosecond time-resolved fluorescence measurements were recorded using a commercial direct-diode-pumped 100 kHz amplifier (Spirit 1040-HE, Spectra-Physics), producing a fundamental beam of 1040 nm (350 fs, 12 W) which was used to pump a non-collinear optical parametric amplifier (Spirit-NOPA, SpectraPhysics) capable of delivering tunable, high-repetition-rate pulses with pulse widths as short as sub-20 fs. The samples 7·2PF6 and 9·4PF6 were excited with […], 2 nJ laser pulses. Fluorescence was detected using a Hamamatsu C4780 Streakscope as previously described in the literature.^71 Samples were prepared in 2-mm quartz cuvettes. All data were acquired in the single-photon-counting mode using the Hamamatsu HPD-TA software. […]

The next data set in a line: Solubility (qualitative). The following applies: PF6− salt; e.g. MeCN, Me2CO, DMF.
Data set [3] in a line: Absolute fluorescence quantum yield (integrating sphere). The following applies: 414 nm excitation.
Data set [4] can be described thus: Steady-state UV/Vis absorption and fluorescence emission spectra. The following applies: THF, 10 μM. As for the experimental part:
Fluorescent dyes 1-6, 7·2PF6, 8·2PF6, 9·4PF6 and 9·4Cl were dissolved in THF (1-5), MeCN (6, 7·2PF6, 8·2PF6 and 9.4PF6) and H2O (9.4Cl), respectively, to afford 10 μM solutions prior to spectroscopic analysis. For comparison, their normalized (i) UV/Vis absorption (FIG. 2) and (ii) the fluorescence emission (FIG. 3) spectra of quadrupolar dyes are overlayed, displaying a large range of S1 absorbance and emission maxima, which rely highly on their quadrupolarity that is correlated to the electron-deficiency of the ARs.
as §1

Data set [5] in a line: Transient absorption (fsTA/nsTA) and time-resolved fluorescence spectroscopy. The following applies: in PhMe.

For `CCCCCCCCOc1cc(-c2ccc(C(=O)OC)cc2)c(OCCCCCCCC)cc1-c1ccc(C(=O)OC)cc1` [Dye 4], in data set [1], the “rate constant k1 from TA data” value is on record as “(0.7 ± 0.3 ps)^−1 (ps)^−1”, the “rate constant k2 from TA data” value was “(132 ± 7 ps)^−1 (ps)^−1”, the “rate constant k3 from TA data” value is given as “(3.80 ± 0.01 ns)^−1 (ns)^−1” and the “rate constant k4 from TA data” value is on record as “(210 ± 2 ns)^−1 (ns)^−1”. Besides, in data set [1], the “non-radiative decay rate constant kNR” value is recorded as “(17.3 ± 0.4 ns)^−1 (ns)^−1”. For the same molecule, in data set [2], the “Quantum Yield (ΦF)” value turned out to be 0.78.

On to `COc1cc2c(OC)cc1-c1cc[n+](cc1)Cc1ccc(cc1)C[n+]1ccc(cc1)-c1cc(OC)c(cc1OC)-c1cc[n+](cc1)Cc1ccc(cc1)C[n+]1ccc-2cc1` [9·4PF6], for which, in data set [1], the “excited-state (emissive) lifetime” value is 3.45±0.01 ns, the “rate constant k1 from TA data” value is “(1.4 ± 0.3 ps)^−1 (ps)^−1”, the “rate constant k2 from TA data” value is “(188 ± 4 ps)^−1 (ps)^−1” and the “rate constant k3 from TA data” value is given as “(3.45 ± 0.01 ns)^−1 (ns)^−1”. Further, in data set [1], the “rate constant k4 from TA data” value is given as “(450 ± 70 ns)^−1 (ns)^−1”, the “non-radiative decay rate constant kNR” value is reported as “(4.79 ± 0.03 ns)^−1 (ns)^−1” and the “radiative decay rate constant kR” value is recorded as “(12.3 ± 0.2 ns)^−1 (ns)^−1”. Also, in “Solubility (qualitative)”, the “solubility in polar organic solvents” value is “readily soluble”. Besides, the “Quantum Yield (ΦF)” value in data set [2] stood at 0.28. The “ΦF in the solid-state (powder)” value in data set [3] worked out at 0.030±0.005.

For `CCCCCCCCOc1cc(-c2ccc(F)cc2)c(OCCCCCCCC)cc1-c1ccc(F)cc1` [Dye 1], in data set [1], the “rate constant k1 from TA data” value is given as “(5.4 ± 0.6 ps)^−1 (ps)^−1”, the “rate constant k2 from TA data” value is “(83 ± 7 ps)^−1 (ps)^−1”, the “rate constant k3 from TA data” value is given as “(3.38 ± 0.03 ns)^−1 (ns)^−1” and the “rate constant k4 from TA data” value is listed as “(155 ± 3 ns)^−1 (ns)^−1”. Also, the “non-radiative decay rate constant kNR” value in data set [1] is given as “(3.89 ± 0.02 ns)^−1 (ns)^−1”. Also, in data set [4], the “UV absorption band centre” value came out at 316 nm and the “emission λem” value stood at 380 nm. Besides, in data set [2], the “Quantum Yield (ΦF)” value was found to be 0.13.

Turning to `COc1cc(-c2ccncc2)c(OC)cc1-c1ccncc1` [Dye 6], in data set [1], the “rate constant k1 from TA data” value is “(0.6 ± 0.3 ps)^−1 (ps)^−1”, the “rate constant k2 from TA data” value is recorded as “(52 ± 1 ps)^−1 (ps)^−1”, the “rate constant k3 from TA data” value is recorded as “(4.05 ± 0.02 ns)^−1 (ns)^−1” and the “rate constant k4 from TA data” value is listed as “(163 ± 2 ns)^−1 (ns)^−1”. Further, in data set [1], the “non-radiative decay rate constant kNR” value was “(11.0 ± 0.2 ns)^−1 (ns)^−1” and the “radiative decay rate constant kR” value is “(6.43 ± 0.05 ns)^−1 (ns)^−1”. In addition, in data set [2], the “Quantum Yield (ΦF)” value is 0.63.

On to `CCCCCCCCOc1cc(-c2ccc(C(F)(F)F)cc2)c(OCCCCCCCC)cc1-c1ccc(C(F)(F)F)cc1` [Dye 2], for which, in data set [1], the “rate constant k1 from TA data” value is “(1.4 ± 0.3 ps)^−1 (ps)^−1”, the “rate constant k2 from TA data” value is recorded as “(85 ± 2 ps)^−1 (ps)^−1”, the “rate constant k3 from TA data” value was “(3.16 ± 0.01 ns)^−1 (ns)^−1” and the “rate constant k4 from TA data” value is recorded as “(150 ± 2 ns)^−1 (ns)^−1”. For the same molecule, in data set [1], the “non-radiative decay rate constant kNR” value is on record as “(7.2 ± 0.1 ns)^−1 (ns)^−1” and the “radiative decay rate constant kR” value is “(5.64 ± 0.05 ns)^−1 (ns)^−1”. Also, the “Quantum Yield (ΦF)” value in data set [2] is 0.56.

With `CCCCCCCCOc1cc(-c2ccc(C#N)cc2)c(OCCCCCCCC)cc1-c1ccc(C#N)cc1` [Dye 3], in data set [1], the “rate constant k1 from TA data” value is given as “(0.8 ± 0.3 ps)^−1 (ps)^−1”, the “rate constant k2 from TA data” value is “(99 ± 2 ps)^−1 (ps)^−1”, the “rate constant k3 from TA data” value was “(4.23 ± 0.02 ns)^−1 (ns)^−1” and the “rate constant k4 from TA data” value is “(314 ± 1 ns)^−1 (ns)^−1”. Besides, in data set [1], the “non-radiative decay rate constant kNR” value is “(22.3 ± 0.6 ns)^−1 (ns)^−1” and the “radiative decay rate constant kR” value is “(5.22 ± 0.03 ns)^−1 (ns)^−1”. Besides, the “Quantum Yield (ΦF)” value in data set [2] was found to be 0.81.

`CCCCCCCCOc1cc(-c2ccc([N+](=O)[O-])cc2)c(OCCCCCCCC)cc1-c1ccc([N+](=O)[O-])cc1` [Dye 5]: in data set [1], the “rate constant k1 from TA data” value is on record as “(4.3 ± 0.3 ps)^−1 (ps)^−1”, the “rate constant k2 from TA data” value is listed as “(28 ± 2 ps)^−1 (ps)^−1”, the “rate constant k3 from TA data” value was “(102.7 ± 0.3 ns)^−1 (ns)^−1” and the “radiative decay rate constant kR” value was “<(0.9 ns)^−1 (ns)^−1”. For the same molecule, in data set [1] (excited at 350 nm), the “CT state decay back to the ground state” value worked out at 102 ns and the “initially excited state (S1) decay time” value came to 4.3±0.3 ps. Besides, the “non-radiative decay rate constant kNR” value in data set [1] (kobs = k1) was “>(4 ps)^−1 (ps)^−1”. Also, the “Quantum Yield (ΦF)” value in data set [2] is <0.005. Moreover, the triplet state lifetime (diffusional quenching-limited) in data set [5] (deaerated solution) was determined as 1 µs. Moreover, in data set [5] (excited at 350 nm), the “CT state decay to triplet state” value is given as 18 ns and the “S1 state decay time” value amounted to 7.9±0.3 ps.
